Source: patent publication US4990531A, “Derivatives of 1-arylsulphonyl-2-pyrrolidinone and their use as medicaments” (Roussel Uclaf, priority 1988, dated 1991)
Like-named read-outs stand apart in the source and are kept apart here. Each block holds one compound with its values, some of them ahead of it.

How the values were obtained:
isolated ileum = assay: Agonist action on isolated guinea-pig ileum; conditions: negative logarithm of the dose producing 50% of maximum effect
Procedure: (§1) The interaction of the compounds with various receptors was evaluated on the isolated ileum of a guinea-pig according to the following method.
(§2) Segments of the ileum of guinea-pigs of 2.5-3 cm were washed and immediately suspended in a bath containing 10 ml of Tyrode's solution at 37° C. and aerated with a mixture of oxygen (95%) and carbon dioxide (5%). After a stabilization period of at least 30 minutes contractions were recorded, while the preparation was maintained under constant tension of 1 g, by means of a detector connected to a polygraph. The agonistic action was evaluated by leaving the compound in contact with the isolated tissue for a period necessary to show the maximum […]; then it was washed with the Tyrode's solution. The following dose was added only after the preparation had returned to its base line. Arecoline was used as a reference product. The antagonist action was evaluated on the contractions induced by acetylcholine (1×10^-6 M), histamine (1×10^-5 M), serotonine (1×10^-6 M) and barium chloride (2×10^-4 M). […] The contact time before adding the agonist was one minute.
(§3) For each compound the does response curves are obtained with 4 to 6 different concentrations and 3 to 5 independent tests. The agonist activity is expressed by pD2 (negative logarithm of the dose which produces 50% of the maximum effect).

[1] = test system: contractions induced by acetylcholine, isolated ileum; assay: Antagonism of acetylcholine-induced contractions, isolated guinea-pig ileum; conditions: acetylcholine 1×10^-6 M; contact time one minute; read-out: Antagonism with various agents (IC50): Ach.
Procedure: as §1, §2, §3

[2] = test system: cholinomimetic effects induced by carbachol; assay: In vivo anticholinergic action: inhibition of carbachol-induced cholinomimetic effects; set-up: species or system CD1 male mice; conditions: for ED50 / ED (1 degree C): Mus musculus, ip, 0.5 h; for ED (1 degree C): rectal temperature, read-out: Body Temperature: dose able to increase by 1° C. the hypothermic effect induced by carbachol
Procedure: The anticholinergic activity of the compounds was determined by evaluating the capacity to inhibit cholinomimetic effects induced by carbachol. Atropine sulphate was used as reference product.
CD1 male mice are used weighing 25 to 30 g. They are divided into groups of 5 animals and treated by intraperitoneal route, in scaled doses, with the products or with 0.25% of Methocel for the controls. 10 animals are used for each dose. 30 minutes after the administration of the compounds, the mice are subcutaneously injected with 1 mg/kg of carbachol, dissolved in physiological serum.
Each animal was examined 30 minutes after the injection of carbachol to evaluate the presence of diarrhea, salivation and watering of the eyes; the body temperature was also measured using a thermocouple inserted 1.5 cm into the rectum.
For each compound, there was determined, and recorded in the following table, the dose able to inhibit, in 50% of the animals, the appearance of peripheral cholinomimetic symptoms induced by carbachol, and to increase by 1° C. the hypothermic effect induced by the cholinergic agent.

[3] = target: T1, muscarine receptors, involved in the contractions of the colon (Rattus norvegicus, UniProt P08483); assay: Antagonist affinity and type of antagonism (Schild), isolated colon of rat
T1 construct: segments of the colon of rats of about 2.5 cm; from tissue; host or cells: isolated rat colon segments
T1 sequence (P08483 whole entry): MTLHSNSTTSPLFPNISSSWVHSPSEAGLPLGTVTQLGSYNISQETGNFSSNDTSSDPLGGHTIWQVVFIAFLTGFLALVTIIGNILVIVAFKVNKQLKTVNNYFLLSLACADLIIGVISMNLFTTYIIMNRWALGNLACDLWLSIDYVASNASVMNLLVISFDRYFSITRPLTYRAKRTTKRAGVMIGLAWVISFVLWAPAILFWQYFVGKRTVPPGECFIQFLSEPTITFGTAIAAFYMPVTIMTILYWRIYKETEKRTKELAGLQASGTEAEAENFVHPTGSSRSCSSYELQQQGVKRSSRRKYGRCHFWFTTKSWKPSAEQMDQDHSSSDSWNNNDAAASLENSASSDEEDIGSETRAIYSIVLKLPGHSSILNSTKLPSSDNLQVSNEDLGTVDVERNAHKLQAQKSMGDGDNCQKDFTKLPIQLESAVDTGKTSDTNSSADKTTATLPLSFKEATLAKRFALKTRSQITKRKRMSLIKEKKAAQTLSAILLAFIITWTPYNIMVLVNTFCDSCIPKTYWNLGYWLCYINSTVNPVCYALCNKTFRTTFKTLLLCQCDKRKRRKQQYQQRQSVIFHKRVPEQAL
Procedure: (§4) The following method was used: segments of the colon of rats of about 2.5 cm are washed and suspended in an insulated bath containing 10 ml of a solution of De Jalon having the following composition: (mM): NaCl 154; KCl 5.7; CaCl2 0.27; NaHCO3 5.9 and glucose 2.5. The temperature of the bath is maintained at 32° C. In these conditions, while maintaining the preparation under a tension of 1 g, the spontaneous activity of the colon is minimal. After a stabilization period of at least 30 minutes, the tension variations are recorded using an isometric transducer connected to a recorder. A series of tests was carried out to evaluate the antagonist activity in relation to the contractions induced by a maximum dose of acetylcholine. (3×10^-6 M).
For each compound the dose-response curves are obtained with 4 to 6 different concentrations and 3 to 5 independent tests.
In a second series of tests the acetylcholine is added to the bath in cumulative doses according to the van Rossum method (J. M. van Rossum, Arch, Int. Pharmacodyn. 143, 299, 1963). Having obtained two equal and consecutive dose-response curves with acetylcholine, a third dose-responsecurve is obtained in the presence of the compound (contact time of compound before acetylcholine=5 min.) Each compound was tested with 3-4 different concentrations
The antagonist affinity and the type of antagonism (competitive, non-competitive) for the muscarine receptors was calculated according to Schild's method (H. D. Schild, Brit. J. Pharmacol. 2, 189, 1947).

[4] = test system: contractions induced by acetylcholine, isolated colon; assay: Antagonism of acetylcholine-induced contractions, isolated colon of rat; conditions: acetylcholine 3×10^-6 M; contact 3 minutes
Procedure: The remarkable antagonist action of the compounds of the invention was confirmed on the isolated colon of rats. In this test it was established whether the antagonist activity was of competitive or non-competitive type.
as §4
The compounds are left in contact with the preparation for 3 minutes before adding acetylcholine.
Atropine was used as a reference product. For each compound the dose-response curves are obtained with 4 to 6 different concentrations and 3 to 5 independent tests.

[5] = Solubility in various solvents; type: physicochemical
[6] = test system: contractions induced by barium chloride, isolated ileum; assay: Antagonism of barium chloride-induced contractions, isolated guinea-pig ileum; conditions: barium chloride 2×10^-4 M; contact time one minute; read-out: Antagonism with various agents (IC50): BaCL2
Procedure: as §1, §2, §3

[7] = i.p., carbachol 1 mg/kg s.c. 30 min later, read-out: dose able to inhibit, in 50% of the animals, Diarrhea
[8] = i.p., carbachol 1 mg/kg s.c. 30 min later, read-out: dose able to inhibit, in 50% of the animals, Salivation
[9] = i.p., carbachol 1 mg/kg s.c. 30 min later, read-out: dose able to inhibit, in 50% of the animals, Watering of Eyes
[10] = i.p., carbachol 1 mg/kg s.c. 30 min later

Compound: COC(=O)C1=CCCN(C)C1 [Arecoline, reference compound]
Agonist Action (pD2) (isolated ileum): 6.68

Compound: CN1[C@@H]2CC[C@H]1C[C@@H](OC(=O)C(CO)c1ccccc1)C2 (stereo partly shown) [Atropine, reference compound]
IC50 [1]: 9.5 nM | ED50 ([2]; read-out: dose able to inhibit, in 50% of the animals, Diarrhea): 0.04 mg/kg | ED50 ([2]; read-out: dose able to inhibit, in 50% of the animals, Salivation): 0.06 mg/kg | ED50 ([2]; read-out: dose able to inhibit, in 50% of the animals, Watering of Eyes): 0.05 mg/kg | "Slope" of Schild plot, isolated colon of rat ([3]; cumulative acetylcholine, Schild's method, contact 5 min): 0.97 | displacement of the dose-response curve of acetylcholine ([3]; isolated colon of rat, in words): parallel displacement towards the right of the dose-response curve of acetyl-choline without reducing the maximum contraction | IC50 [4]: 27 nM

solubility ([5]; 2N hydrochloric acid): insoluble | solubility ([5]; 2N sodium hydroxide): insoluble | solubility ([5]; acetone): slightly soluble | solubility ([5]; alcohol at 95°): slightly soluble | solubility ([5]; benzene): slightly soluble | solubility ([5]; chloroform): Soluble | solubility ([5]; ethyl ether): insoluble | solubility ([5]; water): insoluble
Compound: CN(C)c1ccc(S(=O)(=O)N2CCCC2=O)cc1 [Example 3]

Compound: O=C1CCCN1S(=O)(=O)c1ccc(N2CCCCC2)cc1 [Example 10, 1-[4-(1-piperidinyl)phenylsulphonyl]-2-pyrrolidinone]
ED50 [2, 7]: 3 mg/kg | ED50 [2, 8]: 50 mg/kg | ED50 [2, 9]: > 50 mg/kg | ED (1 degree C) [2, 10]: > 50 mg/kg | selective anticholinergic action in vivo ([2]; i.p., mice, in words): selective anticholinergic action on the intestinal musculature

Compound: O=C1CCCN1S(=O)(=O)c1ccc(N2CCCCCC2)cc1 [Example 18, 1-[4-(4-hexahydroazepin)phenylsulphonyl]-2-pyrrolidinone]
ED50 [2, 7]: 1 mg/kg | ED50 [2, 8]: 15 mg/kg | ED50 [2, 9]: 50 mg/kg | ED (1 degree C) [2, 10]: 15 mg/kg

Compound: COc1ccc(Cc2nccc3cc(OC)c(OC)cc23)cc1OC [Papaverine, reference compound]
IC50 [6]: 45000 nM

Compound: C[N+](C)(C)CCOC(N)=O [carbachol, reference compound]
decrease in rectal temperature ([2]; carbachol 1 mg/kg s.c., control mice): about 2.5 °C | induction of diarrhea, salivation and watering of the eyes ([2]; carbachol 1 mg/kg s.c., control mice, in words): induced diarrhea, salivation and watering of the eyes in all the control mice
